Assay results taken from patent US20260042764A1, “COMPOSITIONS AND METHODS FOR INHIBITION OF KRAS” (TheRas, Inc., priority 2022, published 2026).

How the values were obtained:
SW1900 cells (KRAS G12D) = assay: 3D Cell viability assay in SW1900 cells (Biological Example 6); type: cell-based; conditions: Homo sapiens; SW1990 (text: SW1900, KRAS G12D) spheroids, 72 hours
Experimental: (§1) Biological Example 6: 3D Cell viability assay in AsPC-1, SW1900, HPAC, Capan-2, RKN, H358, HCT116, KP-2, H1573, A549, MKN1, and HT1080 cells
(§2) The inhibition of cellular viability as a result of test compound treatment in a spheroid assay was measured using the CellTiter-Glow 3D Cell Viability Assay (Promega).
(§3) On Day 1, 1000 cells per well were seeded in 150 μL of complete growth media supplemented with 10% fetal bovine serum (FBS) and incubated at 37° C., in the presence of 5% CO2 in 96-well ultra-low attachment microplates (Corning) for 48 hours undisturbed to allow spheroids to form.
(§4) Following spheroid formation, cells were treated with compounds diluted in DMSO at 0.25% final DMSO concentration. Compounds were dosed in a 9-point concentration curve with three-fold dilution between concentrations. Cells were incubated in the presence of compound for 72 hours at 37° C., in the presence of 5% CO2.
(§5) Following this incubation period, the kit-provided CTG reagent was allowed to equilibrate for 30 minutes at room temperature, 150 μL of equilibrated CTG reagent was added to each well, and the plate was sealed before shaking at 250 rpm for 10 minutes at room temperature to lyse the cells, 150 μL of lysate per well was transferred to a 96-well plate and luminescence was read on a CLARIOstar plate reader.
(§6) Data was imported into the Prism software package (Graphpad) and EC50 values were calculated using the log (inhibitor) vs, response—variable slope (Four parameters) model.

GP2d cells (KRAS G12D) = assay: Cell-based pERK HTRF assay in GP2d cell (Biological Example 2); conditions: GP2d
Procedure, shortened: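 Cells grown in DMEM with 10% FBS were exposed to compound for 60 min at 0.25% DMSO, using a 9-point half-log series starting at 1 μM or 100 nM. Lysates were then mixed with d2 and Eu cryptate antibodies for 4–24 h at room temperature, and pERK was read by HTRF.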

H358 cells (KRAS G12C) = assay: 3D Cell viability assay in H358 cells (Biological Example 6); type: cell-based; conditions: Homo sapiens, NCI-H358; H358 (KRAS G12C) spheroids, 72 hours
Experimental: as §1, §2, §3, §4, §5, §6

H1573 cells (KRAS G12A) = assay: 3D Cell viability assay in H1573 cells (Biological Example 6); type: cell-based; conditions: Homo sapiens, NCI-H1573; H1573 (KRAS G12A) spheroids, 72 hours
Experimental: as §1, §2, §3, §4, §5, §6

HCT116 cells (KRAS G13D) = assay: 3D Cell viability assay in HCT116 cells (Biological Example 6); type: cell-based; conditions: Homo sapiens, HCT-116; HCT116 (KRAS G13D) spheroids, 72 hours
Experimental: as §1, §2, §3, §4, §5, §6

[1] = target: T1, Avi-KRAS WT (1-169) GppNHp/RAF1 RBD-3xFLAG (52-151) (Homo sapiens, UniProt P01116); assay: Raf1-KRAS WT-GppNHP disruption HTRF assay (Biological Example 1); type: binding; conditions: KRAS WT, GppNHp-loaded; Table 11
T1 construct: Avi-KRAS WT (1-169)
T1 sequence (P01116 1-169 isoform P01116-2): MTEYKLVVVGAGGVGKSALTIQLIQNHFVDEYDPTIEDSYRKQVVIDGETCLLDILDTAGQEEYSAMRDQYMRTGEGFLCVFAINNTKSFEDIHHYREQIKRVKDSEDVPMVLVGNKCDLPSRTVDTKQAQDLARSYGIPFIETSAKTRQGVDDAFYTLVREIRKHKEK
Procedure, shortened: (§7)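 Using HTRF, the loss of KRAS–effector RAF1 complex was quantified in 50 mM Tris pH 7.5 buffer with 100 mM NaCl and 0.1% BSA. The protein step and reagent step ran 1 h each at room temperature. Activity normalized with DMSO taken as 100%.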

[2] = target: T2, Avi-KRAS G12D (1-169) GppNHp/RAF1 RBD-3xFLAG (52-151) (Homo sapiens, UniProt P01116, G12D); assay: Raf1-KRAS G12D-GppNHP disruption HTRF assay (Biological Example 1); type: binding; conditions: KRAS G12D, GppNHp-loaded; Table 11
T2 construct: Avi-KRAS G12D (1-169)
T2 sequence (P01116 1-169 isoform P01116-2 G12D): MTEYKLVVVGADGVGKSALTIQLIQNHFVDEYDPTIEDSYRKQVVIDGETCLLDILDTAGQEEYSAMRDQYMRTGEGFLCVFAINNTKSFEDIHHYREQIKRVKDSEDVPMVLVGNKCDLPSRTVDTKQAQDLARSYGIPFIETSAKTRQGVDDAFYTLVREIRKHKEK
Procedure, shortened: as §7

[3] = target: T3, Avi-KRAS G12R (1-169) GppNHp/RAF1 RBD-3xFLAG (52-151) (Homo sapiens, UniProt P01116, G12R); assay: Raf1-KRAS G12R-GppNHP disruption HTRF assay (Biological Example 1); type: binding; conditions: KRAS G12R, GppNHp-loaded; Table 11
T3 construct: Avi-KRAS G12R (1-169)
T3 sequence (P01116 1-169 isoform P01116-2 G12R): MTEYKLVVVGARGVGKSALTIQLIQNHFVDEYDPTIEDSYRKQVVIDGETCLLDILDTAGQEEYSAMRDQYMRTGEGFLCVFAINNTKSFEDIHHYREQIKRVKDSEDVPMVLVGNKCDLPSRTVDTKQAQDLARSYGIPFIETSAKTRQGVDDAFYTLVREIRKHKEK
Procedure, shortened: as §7

HPAC cells (KRAS G12D) = assay: 3D Cell viability assay in HPAC cells (Biological Example 6); type: cell-based; conditions: Homo sapiens, HPAC, 72 h, HPAC (KRAS G12D) spheroids
Experimental: as §1, §2, §3, §4, §5, §6

A549 cells (KRAS G12S) = assay: 3D Cell viability assay in A549 cells (Biological Example 6); type: cell-based; conditions: Homo sapiens; A549 (KRAS G12S) spheroids, 72 hours
Experimental: as §1, §2, §3, §4, §5, §6

[4] = target: T4, Avi-KRAS G12V (1-169) GppNHp/RAF1 RBD-3xFLAG (52-151) (Homo sapiens, UniProt P01116, G12V); assay: Raf1-KRAS G12V-GppNHP disruption HTRF assay (Biological Example 1); type: binding; conditions: KRAS G12V, GppNHp-loaded; Table 11
T4 construct: Avi-KRAS G12V (1-169)
T4 sequence (P01116 1-169 isoform P01116-2 G12V): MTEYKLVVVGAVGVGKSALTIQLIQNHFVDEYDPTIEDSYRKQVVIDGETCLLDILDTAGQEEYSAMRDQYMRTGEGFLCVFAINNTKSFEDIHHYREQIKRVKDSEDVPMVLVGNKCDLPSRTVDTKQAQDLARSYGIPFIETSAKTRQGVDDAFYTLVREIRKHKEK
Procedure, shortened: as §7

HT1080 cells (NRAS) = assay: 3D Cell viability assay in HT1080 cells (Biological Example 6); type: cell-based; conditions: Homo sapiens, HT-1080; HT1080 (NRAS) spheroids, 72 hours
Experimental: as §1, §2, §3, §4, §5, §6

[5] = target: T5, Avi-KRAS WT (2-169) GTP/RAF1 RBD-3xFLAG (51-131) (Homo sapiens, UniProt P01116); assay: Raf1-KRAS WT-GTP disruption HTRF assay (Biological Example 3); type: binding
T5 construct: Avi-KRAS WT (2-169)
T5 sequence (P01116 2-169 isoform P01116-2): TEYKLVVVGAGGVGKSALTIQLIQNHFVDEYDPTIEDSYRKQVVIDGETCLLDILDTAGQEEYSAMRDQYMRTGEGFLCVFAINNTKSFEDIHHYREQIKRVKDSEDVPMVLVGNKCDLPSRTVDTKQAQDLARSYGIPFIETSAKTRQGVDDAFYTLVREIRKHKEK
Procedure, shortened: (§8)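 50 nM Avi-KRAS (2-169) GTP/RAF1 RBD complex; 75 nM RBD-Avi; pH 7.5 Tris buffer, 10% DMSO; cpd 30 μM top, 3x, 10 pts; 1 h RT, 700 rpm; HTRF, % of DMSO.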

[6] = target: T6, Avi-KRAS G12C (2-169) GTP/RAF1 RBD-3xFLAG (51-131) (Homo sapiens, UniProt P01116, G12C); assay: Raf1-KRAS G12C-GTP disruption HTRF assay (Biological Example 3); type: binding
T6 construct: Avi-KRAS G12C (2-169)
T6 sequence (P01116 2-169 isoform P01116-2 G12C): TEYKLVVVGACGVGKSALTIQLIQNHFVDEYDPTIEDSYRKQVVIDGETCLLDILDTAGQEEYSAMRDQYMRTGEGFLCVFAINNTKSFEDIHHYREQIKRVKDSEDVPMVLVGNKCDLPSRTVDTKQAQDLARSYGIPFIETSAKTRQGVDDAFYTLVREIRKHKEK
Procedure, shortened: as §8

[7] = target: T7, Avi-KRAS G12D (2-169) GTP/RAF1 RBD-3xFLAG (51-131) (Homo sapiens, UniProt P01116, G12D); assay: Raf1-KRAS G12D-GTP disruption HTRF assay (Biological Example 3); type: binding
T7 construct: Avi-KRAS G12D (2-169)
T7 sequence (P01116 2-169 isoform P01116-2 G12D): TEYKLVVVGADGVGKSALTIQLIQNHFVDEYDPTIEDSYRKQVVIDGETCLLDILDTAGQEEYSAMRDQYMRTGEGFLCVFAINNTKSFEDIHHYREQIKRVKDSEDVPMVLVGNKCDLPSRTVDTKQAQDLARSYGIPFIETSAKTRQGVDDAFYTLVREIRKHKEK
Procedure, shortened: as §8

[8] = target: T8, Avi-KRAS G12V (2-169) GTP/RAF1 RBD-3xFLAG (51-131) (Homo sapiens, UniProt P01116, G12V); assay: Raf1-KRAS G12V-GTP disruption HTRF assay (Biological Example 3); type: binding
T8 construct: Avi-KRAS G12V (2-169)
T8 sequence (P01116 2-169 isoform P01116-2 G12V): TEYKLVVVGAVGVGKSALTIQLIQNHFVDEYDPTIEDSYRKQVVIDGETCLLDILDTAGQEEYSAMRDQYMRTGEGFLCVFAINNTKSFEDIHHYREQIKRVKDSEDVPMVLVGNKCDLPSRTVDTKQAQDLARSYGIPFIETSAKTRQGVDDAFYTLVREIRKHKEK
Procedure, shortened: as §8

SW620 cells (KRAS G12V) = assay: Cell-based pERK HTRF assay in SW620 cell (Biological Example 4); conditions: Homo sapiens
Procedure, shortened: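 In SW620 cells grown in RPMI with 10% FBS, a 4 h compound treatment (0.25% DMSO, 9-point curve from 1 μM) preceded lysis. Phospho-ERK levels were then read by time-resolved FRET at 615 nm emission.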

[9] = SW-620, SW620 (KRAS G12V) cells

Row | IC50 (GP2d cells (KRAS G12D); GP2d (KRAS G12D) cells) | IC50 ([5]; KRAS WT, GTP-loaded) | IC50 ([6]; KRAS G12C, GTP-loaded) | IC50 ([7]; KRAS G12D, GTP-loaded) | IC50 ([8]; KRAS G12V, GTP-loaded) | IC50 (SW620 cells (KRAS G12V); [9]) | Structure (SMILES) | other results
1 |  |  |  |  |  |  | CN(C)c1nc(OC[C@@]23CCCN2C[C@H](F)C3)nc2c(F)c(-c3ccc(F)c4sc(N)c(C#N)c34)c(C(F)(F)F)cc12 [Compound 153] | IC50 (SW1900 cells (KRAS G12D)): 100 to 1000 nM; IC50 (GP2d cells (KRAS G12D); GP2d (KRAS G12D) cells, pERK HTRF): < 100 nM; IC50 (H358 cells (KRAS G12C)): ≤ 100 nM; IC50 (H1573 cells (KRAS G12A)): 100 to 1000 nM; IC50 (HCT116 cells (KRAS G13D)): 100 to 1000 nM; IC50 [1]: 100 to 1000 nM; IC50 [2]: < 100 nM; IC50 [3]: 100 to 1000 nM; IC50 (HPAC cells (KRAS G12D)): 100 to 1000 nM; IC50 (A549 cells (KRAS G12S)): ≤ 100 nM; IC50 [4]: 100 to 1000 nM; IC50 (HT1080 cells (NRAS)): > 1000 nM
2 | < 100 nM | 100 to 1000 nM | 100 to 1000 nM | 100 to 1000 nM | ≤ 100 nM | < 100 nM | CCN(c1nc(OC[C@@]23CCCN2C[C@H](F)C3)nc2c(F)c(-c3ccc(F)c4sc(N)c(C#N)c34)c(C(F)(F)F)cc12)[C@H]1C[C@H](C)N(C(=O)[C@@H]2C[C@H]2F)C1 (atropisomer, axis not shown; (aS)) [Compound 893, 2-amino-4-((S)-4-(ethyl((3S,5S)-1-((1S,2R)-2-fluorocyclopropane-1-carbonyl)-5-methylpyrrolidin-3-yl)amino)-8-fluoro-2-(((2R,7aS)-2-fluorotetrahydro-1H-pyrrolizin-7a (5H)-yl)methoxy)-6-(trifluoromethyl)quinazolin-7-yl)-7-fluorobenzo[b]thiophene-3-carbonitrile] | 
3 |  |  |  |  |  |  | CCN(c1nc(OC[C@@]23CCCN2C[C@H](F)C3)nc2c(F)c(-c3ccc(F)c4sc(N)c(C#N)c34)c(C(F)(F)F)cc12)[C@H]1CCN(c2nccs2)C1 [Compound 973] | IC50 (GP2d cells (KRAS G12D); GP2d cells (KRAS G12D)): < 100 nM; IC50 ([5]; KRAS WT-GTP / RAF1 RBD HTRF): 1000 to 10000 nM; IC50 ([6]; KRAS G12C-GTP / RAF1 RBD HTRF): 100 to 1000 nM; IC50 ([7]; KRAS G12D-GTP / RAF1 RBD HTRF): 100 to 1000 nM; IC50 ([8]; KRAS G12V-GTP / RAF1 RBD HTRF): 100 to 1000 nM; IC50 (SW620 cells (KRAS G12V); SW-620, SW620 cells (KRAS G12V)): < 100 nM
4 | < 100 nM | 100 to 1000 nM | 100 to 1000 nM | 100 to 1000 nM | 100 to 1000 nM | < 100 nM | CCN(c1nc(OC[C@@]23CCCN2C[C@H](F)C3)nc2c(F)c(-c3ccc(F)c4sc(N)c(C#N)c34)c(C(F)(F)F)cc12)[C@@H]1CO[C@H]2OCC[C@H]21 (atropisomer, axis not shown) [Compound 966] | 
5 | < 100 nM | 100 to 1000 nM | ≤ 100 nM | ≤ 100 nM | ≤ 100 nM | < 100 nM | CCN(c1nc(OC[C@@]23CCCN2C[C@H](F)C3)nc2c(F)c(-c3ccc(F)c4sc(N)c(C#N)c34)c(C(F)(F)F)cc12)[C@H]1C[C@H]2COCC(=O)N2C1 (atropisomer, axis not shown) [Compound 882] | 
6 | < 100 nM | 1000 to 10000 nM | 1000 to 10000 nM | 1000 to 10000 nM | 1000 to 10000 nM | 100 to 1000 nM | N#Cc1c(N)sc2c(F)ccc(-c3c(C(F)(F)F)cc4c(N5Cc6ccncc6C5)nc(OC[C@@]56CCCN5C[C@H](F)C6)nc4c3F)c12 [Compound 946] | 
